According to US9598346B2, “Enantioselective process for the preparation of enantiomers of sex pheromones” (COUNCIL OF SCIENTIFIC AND INDUSTRIAL RESEARCH, priority 2013, dated 2017):
Where two headings read alike, the source gives them in different places.

Key:
[1] = test system: male long tailed mealybugs (P. longispinus); assay: Field bioassay of the pheromone enantiomers and the racemate (delta sticky traps); format: in vivo, Pseudococcus longispinus; settings: for attractiveness to male mealybugs (trap catches): traps 6 d + 11 d
Description: FIG. 1 depicts Male long tailed mealybugs caught in traps baited with each of the enantiomers of the pheromone, and the racemate. No mealybugs were caught in solvent treated controls.
(The field trials on vineyards were conducted with the help of Prof. Jocelyn Millar, University of California, Riverside, USA)
A field bioassay of the pheromone was conducted at a nursery in Bonsall, Calif., USA, in a 0.49 ha plot of Ruscus hypoglossum L. (plot coordinates: 33°17′18.36″ N, 117°16′55.61″ W elev 113 m) that was known to be infested with P. longispinus. The plot was divided into seven hoop houses (63 m long×7 m wide), six of which were used in this study. Each house (block) was covered in plastic with open ends. Airflow between houses was not restricted because the plastic cover began 1 m above the plant canopy. Four delta sticky traps were spaced every 12.5 m along a transect within each house, suspended directly above the ruscus canopy. Each trap contained an 11 mm gray rubber septum impregnated with a hexane solution of one of four treatments: solvent control, 5 μg of (S)-(+)-enantiomer, 5 μg of (R)-(−)-enantiomer, 10 μg of the racemate. Treatments were assigned randomly along each transect. Traps were replaced, and treatments were repositioned once after 6 d. Traps remained in place for another 11 d. Trap count data were analyzed by analysis of variance after √(x+0.5) transformation of the data to meet the assumptions of normality and equal variances. Differences among means were tested using Tukey's honestly significant differences (HSD) test. There was no significant interaction between the two sampling periods (date) and the treatments (F=3.23, df=2, 30, and P=0.054). Thus, data for each date were combined for the final analysis. There was both a significant effect of date (F=10.19, df=2, 32, P=0.0032) and treatment (F=130.04, df=2, 32, P<0.0001). Controls were not included in the analysis because their zero values and lack of variance violate the assumptions of ANOVA.

[2] = test system: male mealybugs (long-tailed mealybug); settings: 25 μg, field trials, cited from earlier work
[3] = 5 μg enantiomer on rubber septum in delta sticky trap, nursery plot of Ruscus hypoglossum

## CC(=O)OCC[C@]1(C)C=CCC1(C)C [(R)-(−)-enantiomer, (−) 2-(1,5,5-trimethylcyclopent-2-en-1-yl)ethyl acetate]
[1]; [3]
  attractiveness to male mealybugs (trap catches): only slightly more attractive than solvent-treated controls
[1]; inferred from racemate (10 μg) versus pure enantiomer (5 μg)
  inhibitory effect of the enantiomer on attraction: not inhibitory

## CC(=O)OCCC1(C)C=CCC1(C)C (racemic) [racemate (±1), 2-(1,5,5-trimethylcyclopent-2-en-1-yl) ethyl acetate]
[1]; 10 μg of the racemate on rubber septum in delta sticky trap
  attractiveness to male mealybugs (trap catches): as attractive as the pure enantiomer
[2]; listed as racemic form of the pheromone
  attractiveness to male mealybugs and its duration: sufficient to attract mealy bug for three months
[2]; listed as racemic pheromone
  attractiveness to male mealybugs and its duration: highly attractive to male mealybugs for more than three months

## CC(=O)OCC[C@@]1(C)C=CCC1(C)C [(S)-(+)-enantiomer, (+) 2-(1,5,5-trimethylcyclopent-2-en-1-yl)ethyl acetate]
[1]; [3]
  attractiveness to male mealybugs (trap catches): highly attractive
[1]; 5 μg enantiomer on rubber septum in delta sticky trap, nursery plot of Ruscus hypoglossum, listed as (+)1
  attractiveness to male mealybugs (trap catches): more activity than racemic pheromone
